The values that follow come from patent US5840740A, “Aminosterol compounds and a method of treating infection using the aminosterol compounds” (priority 1995, dated 1998).

The subject of one experiment is Xenopus tadpole. The note with it: stage 59-60, 10 μg/ml; in words.
The test system of experiment [1] is chick embryo vitelline capillaries. Description: Chick embryo vitelline capillary regression assay. It counts as in vivo. Also noted: key to vascular reactivity (capillary regression): +: Vascular reactivity; 0: No vascular reactivity; +/-: Equivocal reactivity. Particulars: for vascular reactivity (capillary regression): 60 min; for Chick embryo diss. assay, Minimum Effective Concentration: Table II; for effect on chick embryo vessels / blood: in words. As for the experimental part:
Using the chick embryo vitelline capillaries assay, compounds were tested for their ability to induce capillary regression. Each compound was applied in 0.1 ml of 15% Ficol 400 and PBS onto the embryo, and vascular regression was assessed after 60 minutes.
The 3-day chick embryo consists of an embryonic disc from which numerous vessels emerge and return, forming a "figure 8"-shaped structure--the embryo in the center with vascular loops extending outward over both poles. […] Following a lag period of around 15 minutes, the constriction of continuity between capillary and secondary vessels, generally on the "avenous" side, was observed. Continued pulsatile blood flow progressed, resulting in a "swelling" of the blind tube, followed by a pinching off of the remaining connection and formation of an enclosed vascular sac resembling a "blood island." This process progressed until only the largest vessels remained intact.

A value given as a limit tells only on which side of the number the result lay.

As for `CC(COS(=O)(=O)O)C(=O)CC[C@@H](C)[C@H]1CC[C@H]2[C@@H]3[C@H](O)C[C@H]4C[C@@H](NCCCNCCCCN)CC[C@]4(C)[C@H]3CC[C@]12C` (single isomer, unassigned) [Compound 1360], in the experiment on Xenopus tadpole, the “pharmacological response in tadpole” value was “Swelling and lysis of certain erythrocytes occurred, resulting in accumulation of nuclei within certain small vessels of the tail. Subsequent tissue breakdown occurred in areas of tail surrounding these nuclear plugs”. In experiment [1] (1 μg applied), the “vascular reactivity (capillary regression)” value (“vascular reactivity” for short) is on record as 0. In addition, in experiment [1], the “Chick embryo diss. assay, Minimum Effective Concentration” value (from here on “Chick embryo diss. assay”) is more than 10 µg and the “effect on chick embryo vessels / blood” value is listed as “Within 20 minutes, the blood circulating through the embryonic vessels exhibited a brighter red color”.
Turning to `CC(C)CCC[C@@H](C)[C@H]1CC[C@H]2[C@@H]3[C@H](O)C[C@H]4C[C@@H](NCCCNCCCCN)CC[C@]4(C)[C@H]3CC[C@]12C` [Compound 371], the “pharmacological response in tadpole” value in the experiment on Xenopus tadpole is given as “effects like those produced by compound 1436”. The “vascular reactivity” value in experiment [1] (0.001 μg applied) was 0; in experiment [1] (0.01 μg applied), 0; in experiment [1] (0.1 μg applied) it was 0; in experiment [1] (1 μg applied), “+/-”; in experiment [1] (10 μg applied), “+”. In addition, in experiment [1], the “Chick embryo diss. assay” value was 1 to 10 µg.
`COC(=O)CC[C@@H](C)[C@H]1CC[C@H]2[C@@H]3[C@H](O)C[C@@H]4C[C@@H](NCCN)CC[C@]4(C)[C@H]3CC[C@]12C` [Compound 409]: in the experiment with Xenopus tadpole, the “pharmacological response in tadpole” value is reported as “functionally similar to compound 1437”. In addition, in experiment [1] (1 μg applied), the “vascular reactivity” value is reported as 0. Further, in experiment [1], the “Chick embryo diss. assay” value is more than 1 µg.
As to `C[C@H](CCC(=O)O)[C@H]1CC[C@H]2[C@@H]3[C@H](O)C[C@@H]4C[C@@H](NCCN)CC[C@]4(C)[C@H]3CC[C@]12C` [Compound 415], the “vascular reactivity” value is listed as 0 in experiment [1] (0.001 μg applied), “+” in experiment [1] (0.01 μg applied), “+” in experiment [1] (0.1 μg applied) and “+” in experiment [1] (1 μg applied). Besides, the “Chick embryo diss. assay” value in experiment [1] is more than 1 µg. Further, the “effect on chick embryo vessels / blood” value in experiment [1] is recorded as “especially active”.
On to `C[C@H](CCC(=O)O)[C@H]1CC[C@H]2[C@@H]3CC[C@@H]4C[C@H](NCCN)CC[C@]4(C)[C@H]3C[C@H](O)[C@]12C` [Compound 417], for which, in experiment [1], the “Chick embryo diss. assay” value is more than 1 µg.
The same measure, in the same setting: next, `COC(=O)CC[C@@H](C)[C@H]1CC[C@H]2[C@@H]3CC[C@@H]4C[C@H](NCCCNCCCCNCCCN)CC[C@]4(C)[C@H]3C[C@H](O)[C@]12C` [Compound 448]: 1 µg; `C[C@H](CCC(=O)O)[C@H]1CC[C@H]2[C@@H]3CC[C@@H]4C[C@H](NCCCNCCCCNCCCN)CC[C@]4(C)[C@H]3C[C@H](O)[C@]12C` [Compound 449]: more than 1 µg.
With `COC(=O)CC[C@@H](C)[C@H]1CC[C@H]2[C@@H]3C[C@@H](O)[C@H]4C[C@H](NCCCNCCCCNCCCN)CC[C@]4(C)[C@H]3CC[C@]12C` [Compound 465], the “pharmacological response in tadpole” value in the experiment with Xenopus tadpole is recorded as “pharmacologic activity similar to that seen for FX 3”.
Consider `CC(C)CCC[C@@H](C)[C@H]1CC[C@H]2[C@@H]3[C@H](O)C[C@H]4C[C@H](N)CC[C@]4(C)[C@H]3CC[C@]12C` [Compound 1363], for which, in the experiment with Xenopus tadpole, the “pharmacological response in tadpole” value was “pharmacologic activity similar to Fraction 1”.
With `CC(C)CCC[C@@H](C)[C@H]1CC[C@H]2[C@@H]3[C@H](O)C[C@H]4C[C@@H](N)CC[C@]4(C)[C@H]3CC[C@]12C` [Compound 1364], the “vascular reactivity” value was 0 in experiment [1] (0.001 μg applied); 0 in experiment [1] (0.01 μg applied); 0 in experiment [1] (0.1 μg applied); “+” in experiment [1] (1 μg applied); “+” in experiment [1] (10 μg applied).
